Several values for one entry are separate records, joined by “and”; a condition that tells them apart may be missing. Equal values may be shown once. Where a name gives a salt, the structure may show the parent alone. Read-outs that look alike come from different tables or passages of the source.
Experiments:
[1] = system: CMPD-I-sensitive, K^+ channel binding site; assay: [^3 H]CMPD-I ligand binding to intact RINm5F cells; design: species or system rat; conditions: for inhibition of [^3 H]CMPD-I binding: result in words
Protocol: The cells were fed three times a week and passed weekly with 0.25% trypsin/0.02% EDTA (JRH Biosciences, Lenexa, Kans.). For intact cell binding experiments, RINm5F cells were plated onto 60 mm polystyrene petri dishes (Corning) at 5×10^6 cells/dish and grown for 3 days without a change of media. Alternatively, cells were seeded 1×10^6 cells/dish and grown for 7 days with the last feeding two days prior to use. Final cell density was 10-20 ×10^6 cells/dish. […] Intact cell binding was performed with the cells attached to the dishes. Binding was terminated by three successive 3 ml washes of cold (4° C.) buffer. Cells were removed from the dish in 1.6 ml of 0.5 N NaOH, briefly sonicated and radioactivity was quantitated with a liquid scintillation counter using 10 ml cocktail (Ultima Gold, Packard). Statistical analysis to determine KD and BMax was accomplished using nonlinear regression (Enzfitter, Elsevier-Biosoft, Cambridge, UK). IC50 values were determined using a sigmoidal fit of mean percent inhibition versus log of concentration. Petri dishes were removed from the incubator, media was aspirated and the cells were washed (x2) with 3 ml oxygenated (5%CO2 /95%O2) Hanks Buffer (37° C.). Cells were allowed to equilibrate in buffer at least 10 minutes. […] Dishes were incubated at 37° C., in an atmosphere of 5% CO2 /95% for 90 minutes. Bound radioligand was separated from free by aspirating the buffer and washing the cells rapidly (x3) with 3 ml ice cold (4° C.) Hanks Buffer. Cells were then removed and solubilized with the addition of 1.6 ml 0.5N NaOH. Dishes were mounted on an orbit shaker (Lab Line) and rotated at 100-125 rpm for 20-45 minutes until the cells would detach from the plates. […] The solutions were vortexed and an aliquot (10 μ`) from each tube was removed for total protein determination. The remainder (1.59 ml) was transferred to a 20 ml vial with 10 ml Ultima Gold (Packard) scintillation cocktail and mixed until the aqueous phase cleared. Each sample was counted for at least one minute by a liquid scintillation system set for counting tritium. Total protein content of each dish was determined by the method of Bradford with bovine serum albumin used as the standard. […] Percent Inhibition of specific binding by test compounds was determined by calculating: 100-[(Cpm (with Drug)-Nonspecific cpm.div.Specific cpm)×100](Basic program) Free and Bound radioligand was calculated (Basic program) and a saturation curve based on a nonlinear regression fit of the data was used to determine a KD (nM) and Bmax (fmoles/mg total cellular protein) of binding (Enzfitter, Id.). Mean percent inhibition of binding at the concentrations tested for each drug was fit to a sigmoidal function. IC50 values were calculated from the plot of the fraction of maximal inhibition versus Log of concentration (Enzfitter, Id.).

rat aorta = assay: Aortic relaxation of rat aortic rings precontracted with 20 mM KCl; conditions: aortae depolarized with 20 mM KCl
Protocol: Male Long-Evans Hooded rats (200-400 g) were sacrificed by acute decapitation. Thoracic aortae were rapidly removed and placed in an oxygenated (100% O2) physiological saline solution (PSS) (pH 7.4) of the following composition in mM: NaCl, 130; KCl, 5.9; MgCl2, 1.2; CaCl2, 0.8; HEPES, 22 and glucose, 11.1. The aortae were trimmed of fat, cut into rings 3 mm in length, mounted in an organ bath containing 10 ml of oxygenated PSS at 37° C. and stretched to a resting tension of 2.0 g. The aortae were depolarized with 20 mM KCl and after contractile response had stabilized, vasodilators were added. The vasorelaxation produced by the drugs was reversed by glyburide (a potent antagonist of ATP-dependent K^+ channels, as described above). Prior to the aortic preparation, the instrument to measure changes in aortic tension was set up and each channel was statically calibrated for linearity using Class S metric weights from 1 to 5 grams, the range consistent with changes observed in this study. This instrument translates isometric changes in tension over time to an electrical signal expressed as a tracing that can be quantified by peak height. […] After a 90 minute equilibration the resting tension was readjusted to the baseline level. […] Percent relaxation of putative K^+ channel agonists was calculated as follows: 100-[(Peak Height (mm) after Drug.div.Initial Peak Height (mm) after 20 mM K^+)×100] […]

| SMILES | inhibition of [^3 H]CMPD-I binding [1] | also measured |
| --- | --- | --- |
| [3H]c1cc([3H])c(NC(=C[N+](=O)[O-])NC(C)C(C)(C)C)c(OCC)c1 (single isomer, unassigned) [[^3 H]CMPD-I] | – | Kd ([1]; Scatchard analysis, single binding site (FIG. 3), read-out: apparent KD): 0.7 nM; Kd ([1]; determined by saturation analysis, read-out: KD): 2 nM; Kd ([1]; two additional experiments, read-out: KD): 2.3 nM and 2.4 nM |
| COc1ccc(Cl)cc1C(=O)NCCc1ccc(S(=O)(=O)NC(=O)NC2CCCCC2)cc1 [glyburide] | inhibit binding | reversal of vasorelaxation produced by the drugs (rat aorta): reversed |
| Nc1cc(N2CCCCC2)nc(N)[n+]1OS(=O)(=O)[O-] [minoxidil sulfate] | inhibits binding | – |
| Cc1cnc(C(=O)NCCc2ccc(S(=O)(=O)NC(=O)NC3CCCCC3)cc2)cn1 [glypizide] | inhibit binding | – |
| C=C[C@H]1C[N@@]2CC[C@H]1C[C@H]2[C@H](O)c1ccnc2ccc(OC)cc12 [quinine] | inhibit binding | – |
| CC[N+](CC)(CC)CC [TEA] | inhibit binding | – |
| CC(N/C(=N\C#N)Nc1ccncc1)C(C)(C)C (centres unmarked) [pinacidil] | inhibited | – |
| C=C[C@H]1C[N@@]2CC[C@H]1C[C@@H]2[C@@H](O)c1ccnc2ccc(OC)cc12 [quinidine] | inhibit binding | – |

Reference: patent US5328830A, “Potassium channel modulators” (Miles Inc., priority 1992, dated 1994)
